# Tests used:
# Experiment in all cases: cells
# Type in all cases: functional, cell-based, Homo sapiens
# GR-ST = conditions: Homo sapiens, GR-ST
# Description: SANGER: Inhibition of human GR-ST cell growth in a cell viability assay.
# NB69 = conditions: Homo sapiens, NB69;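 note: growth inhibition of NB69 cells, determined by a cell viability assay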
# Description: SANGER: Inhibition of human NB69 cell growth in a cell viability assay.
# GI-1 = conditions: Homo sapiens, GI-1;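 note: growth inhibition of human GI-1 cells, measured with a cell viability readout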
# Description: SANGER: Inhibition of human GI-1 cell growth in a cell viability assay.
# A4-Fuk = conditions: Homo sapiens, A4-Fuk;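 note: growth inhibition of A4-Fuk cells, read out by a cell viability assay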
# Description: SANGER: Inhibition of human A4-Fuk cell growth in a cell viability assay.
# COLO-320-HSR = conditions: Homo sapiens, COLO-320-HSR;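 note: growth inhibition of COLO-320-HSR cells, determined with a cell viability assay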
# Description: SANGER: Inhibition of human COLO-320-HSR cell growth in a cell viability assay.
# Ramos-2G6-4C10 = conditions: Homo sapiens, Ramos-2G6-4C10;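 note: growth inhibition of the cell line, measured by a cell viability read-out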
# Description: SANGER: Inhibition of human Ramos-2G6-4C10 cell growth in a cell viability assay.
# LS-1034 = conditions: Homo sapiens, LS-1034
# Description: SANGER: Inhibition of human LS-1034 cell growth in a cell viability assay.
# EKVX = conditions: Homo sapiens, EKVX;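 note: growth inhibition of human EKVX cells, read out with a cell viability assay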
# Description: SANGER: Inhibition of human EKVX cell growth in a cell viability assay.
# NB5 = conditions: Homo sapiens, NB5;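 note: growth inhibition of NB5 cells, read out as cell viability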
# Description: SANGER: Inhibition of human NB5 cell growth in a cell viability assay.
# LB2241-RCC = conditions: Homo sapiens, LB2241-RCC;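 note: cell viability assay measuring how strongly the cultured human renal carcinoma line is prevented from growing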
# Description: SANGER: Inhibition of human LB2241-RCC cell growth in a cell viability assay.
# Mo = conditions: Homo sapiens, Mo
# Description: SANGER: Inhibition of human Mo-T cell growth in a cell viability assay.
# JVM-2 = conditions: Homo sapiens, JVM-2;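 note: growth inhibition of JVM-2 cells determined by a cell viability assay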
# Description: SANGER: Inhibition of human JVM-2 cell growth in a cell viability assay.
# KNS-42 = conditions: Homo sapiens, KNS-42;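 note: growth inhibition of KNS-42 cells, read out with a cell viability assay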
# Description: SANGER: Inhibition of human KNS-42 cell growth in a cell viability assay.
# MHH-PREB-1 = conditions: Homo sapiens, MHH-PREB-1;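 note: cell viability assay measuring inhibition of proliferation of human MHH-PREB-1 cells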
# Description: SANGER: Inhibition of human MHH-PREB-1 cell growth in a cell viability assay.
# CP66-MEL = conditions: Homo sapiens, CP66-MEL;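 note: growth inhibition of CP66-MEL cells determined in a cell viability assay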
# Description: SANGER: Inhibition of human CP66-MEL cell growth in a cell viability assay.
# SCC-15 = conditions: Homo sapiens, SCC-15;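 note: growth inhibition of SCC-15 cells, read out with a cell viability assay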
# Description: SANGER: Inhibition of human SCC-15 cell growth in a cell viability assay.
# MMAC-SF = conditions: Homo sapiens, MMAC-SF;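 note: growth inhibition of human MMAC-SF cells, read out with a cell viability assay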
# Description: SANGER: Inhibition of human MMAC-SF cell growth in a cell viability assay.
# CTV-1 = conditions: Homo sapiens, CTV-1;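 note: growth inhibition of the cell line, read out with a cell viability assay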
# Description: SANGER: Inhibition of human CTV-1 cell growth in a cell viability assay.
# DJM-1 = conditions: Homo sapiens, DJM-1;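 note: growth inhibition of human DJM-1 cells, read out by a cell viability assay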
# Description: SANGER: Inhibition of human DJM-1 cell growth in a cell viability assay.
# HT-144 = conditions: Homo sapiens, HT-144
# Description: SANGER: Inhibition of human HT-144 cell growth in a cell viability assay.
# NCI-H747 = conditions: Homo sapiens, NCI-H747;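 note: growth inhibition of human NCI-H747 cells, read out by a cell viability assay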
# Description: SANGER: Inhibition of human NCI-H747 cell growth in a cell viability assay.
# A388 = conditions: Homo sapiens, A388;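 note: growth inhibition of human A388 cells, read out with a cell viability assay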
# Description: SANGER: Inhibition of human A388 cell growth in a cell viability assay.
# MOLT-4 = conditions: Homo sapiens, MOLT-4;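 note: growth inhibition of MOLT-4 cells, determined with a cell viability readout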
# Description: SANGER: Inhibition of human MOLT-4 cell growth in a cell viability assay.
# COLO-829 = conditions: Homo sapiens, COLO-829
# Description: SANGER: Inhibition of human COLO-829 cell growth in a cell viability assay.
# HCE-T = conditions: Homo sapiens, HCE-T;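 note: cell viability assay read-out, reporting inhibition of HCE-T cell growth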
# Description: SANGER: Inhibition of human HCE-T cell growth in a cell viability assay.
# LS-513 = conditions: Homo sapiens, LS-513
# Description: SANGER: Inhibition of human LS-513 cell growth in a cell viability assay.
# OCI-AML2 = conditions: Homo sapiens, OCI-AML2;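 note: growth inhibition of OCI-AML2 cells, read out with a cell viability assay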
# Description: SANGER: Inhibition of human OCI-AML2 cell growth in a cell viability assay.
# D283 Med = conditions: Homo sapiens, D283 Med
# Description: SANGER: Inhibition of human D-283MED cell growth in a cell viability assay.
# NCI-H23 = conditions: Homo sapiens, NCI-H23;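 note: cell viability assay measuring growth inhibition of NCI-H23 cells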
# Description: SANGER: Inhibition of human NCI-H23 cell growth in a cell viability assay.
# EW-1 = conditions: Homo sapiens, EW-1
# Description: SANGER: Inhibition of human EW-1 cell growth in a cell viability assay.
# NTERA-2-cl-D1 = conditions: Homo sapiens, NTERA-2-cl-D1;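 note: inhibition of cell growth, measured with a cell viability assay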
# Description: SANGER: Inhibition of human NTERA-S-cl-D1 cell growth in a cell viability assay.
# GCIY = conditions: Homo sapiens, GCIY;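 note: growth inhibition of the human GCIY cell line, read out by a cell viability assay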
# Description: SANGER: Inhibition of human GCIY cell growth in a cell viability assay.
# KP-N-YS = conditions: Homo sapiens, KP-N-YS;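 note: cell viability assay measuring inhibition of cell line growth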
# Description: SANGER: Inhibition of human KP-N-YS cell growth in a cell viability assay.
# SK-MEL-1 = conditions: Homo sapiens, SK-MEL-1;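 note: growth inhibition of human SK-MEL-1 cells, read out by a cell viability assay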
# Description: SANGER: Inhibition of human SK-MEL-1 cell growth in a cell viability assay.
# MHH-NB-11 = conditions: Homo sapiens, MHH-NB-11;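 note: growth inhibition of human MHH-NB-11 cells, read out by a cell viability assay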
# Description: SANGER: Inhibition of human MHH-NB-11 cell growth in a cell viability assay.
# GB-1 = conditions: Homo sapiens, GB-1;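 note: growth of GB-1 cells judged by a viability assay, IC50 marks the concentration inhibiting growth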
# Description: SANGER: Inhibition of human GB-1 cell growth in a cell viability assay.
# OS-RC-2 = conditions: Homo sapiens, OS-RC-2;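 note: growth inhibition of human OS-RC-2 cells, measured by a cell viability assay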
# Description: SANGER: Inhibition of human OS-RC-2 cell growth in a cell viability assay.
# VA-ES-BJ = conditions: Homo sapiens, VA-ES-BJ;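 note: growth inhibition of the VA-ES-BJ cell line, read out by a cell viability assay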
# Description: SANGER: Inhibition of human VA-ES-BJ cell growth in a cell viability assay.
# P30-OHK = conditions: Homo sapiens, P30-OHK;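 note: growth inhibition of the P30-OHK cell line, read out with a cell viability assay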
# Description: SANGER: Inhibition of human P30-OHK cell growth in a cell viability assay.
# KARPAS-299 = conditions: Homo sapiens, KARPAS-299
# Description: SANGER: Inhibition of human KARPAS-299 cell growth in a cell viability assay.
# no-10 = conditions: Homo sapiens;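 note: growth inhibition of no-10 cells, read out with a cell viability assay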
# Description: SANGER: Inhibition of human no-10 cell growth in a cell viability assay.
# KGN = conditions: Homo sapiens, KGN;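 note: growth inhibition of KGN cells, read out with a cell viability assay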
# Description: SANGER: Inhibition of human KGN cell growth in a cell viability assay.
# EW-18 = conditions: Homo sapiens, EW-18;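 note: growth inhibition of EW-18 cells, read out by a cell viability assay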
# Description: SANGER: Inhibition of human EW-18 cell growth in a cell viability assay.
# KALS-1 = conditions: Homo sapiens, KALS-1;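 note: growth inhibition of KALS-1 cells, determined with a cell viability assay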
# Description: SANGER: Inhibition of human KALS-1 cell growth in a cell viability assay.
# JVM-3 = conditions: Homo sapiens, JVM-3;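 note: growth inhibition of human JVM-3 cells, read out with a cell viability assay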
# Description: SANGER: Inhibition of human JVM-3 cell growth in a cell viability assay.
# NCI-H510A = conditions: Homo sapiens, NCI-H510A;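 note: growth inhibition of NCI-H510A cells, read out with a cell viability assay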
# Description: SANGER: Inhibition of human NCI-H510A cell growth in a cell viability assay.
# MSTO-211H = conditions: Homo sapiens, MSTO-211H
# Description: SANGER: Inhibition of human MSTO-211H cell growth in a cell viability assay.
# TE-11 = conditions: Homo sapiens, TE-11;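 note: growth inhibition of human TE-11 cells, read out by a cell viability assay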
# Description: SANGER: Inhibition of human TE-11 cell growth in a cell viability assay.
# NCI-H1304 = conditions: Homo sapiens, NCI-H1304;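 note: growth inhibition of the cancer cell line, measured in a cell viability assay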
# Description: SANGER: Inhibition of human NCI-H1304 cell growth in a cell viability assay.
smiles,measurement,setting,value
C#Cc1cccc(Nc2ncnc3cc(OCCOC)c(OCCOC)cc23)c1 [ERLOTINIB],IC50,GR-ST,> 2 µM
same,IC50,NB69,> 2 µM
same,IC50,GI-1,> 2 µM
same,IC50,A4-Fuk,> 2 µM
same,IC50,COLO-320-HSR,> 2 µM
same,IC50,Ramos-2G6-4C10,> 2 µM
same,IC50,LS-1034,> 2 µM
same,IC50,EKVX,1.12 µM
same,IC50,NB5,> 2 µM
same,IC50,LB2241-RCC,> 2 µM
same,IC50,Mo,> 2 µM
same,IC50,JVM-2,> 2 µM
same,IC50,KNS-42,> 2 µM
same,IC50,MHH-PREB-1,> 2 µM
same,IC50,CP66-MEL,> 2 µM
same,IC50,SCC-15,> 2 µM
same,IC50,MMAC-SF,> 2 µM
same,IC50,CTV-1,> 2 µM
same,IC50,DJM-1,> 2 µM
same,IC50,HT-144,> 2 µM
same,IC50,NCI-H747,> 2 µM
same,IC50,A388,1.09 µM
same,IC50,MOLT-4,> 2 µM
same,IC50,COLO-829,> 2 µM
same,IC50,HCE-T,> 2 µM
same,IC50,LS-513,> 2 µM
same,IC50,OCI-AML2,> 2 µM
same,IC50,D283 Med,> 2 µM
same,IC50,NCI-H23,> 2 µM
same,IC50,EW-1,> 2 µM
same,IC50,NTERA-2-cl-D1,> 2 µM
same,IC50,GCIY,> 2 µM
same,IC50,KP-N-YS,> 2 µM
same,IC50,SK-MEL-1,> 2 µM
same,IC50,MHH-NB-11,> 2 µM
same,IC50,GB-1,> 2 µM
same,IC50,OS-RC-2,> 2 µM
same,IC50,VA-ES-BJ,> 2 µM
same,IC50,P30-OHK,> 2 µM
same,IC50,KARPAS-299,> 2 µM
same,IC50,no-10,> 2 µM
same,IC50,KGN,> 2 µM
same,IC50,EW-18,> 2 µM
same,IC50,KALS-1,> 2 µM
same,IC50,JVM-3,> 2 µM
same,IC50,NCI-H510A,> 2 µM
CC(C)CCN1c2nc(Nc3cc(F)c(O)c(F)c3)ncc2N(C)C(=O)C1C (stereo not given),IC50,MSTO-211H,> 5 µM
same,IC50,GR-ST,> 5 µM
same,IC50,NB69,> 5 µM
same,IC50,GI-1,3.15 µM
same,IC50,A4-Fuk,> 5 µM
same,IC50,COLO-320-HSR,> 5 µM
same,IC50,Ramos-2G6-4C10,1.7 µM
same,IC50,LS-1034,> 5 µM
same,IC50,EKVX,> 5 µM
same,IC50,NB5,> 5 µM
same,IC50,LB2241-RCC,3.69 µM
same,IC50,Mo,> 5 µM
same,IC50,JVM-2,> 5 µM
same,IC50,KNS-42,> 5 µM
same,IC50,MHH-PREB-1,4.4 µM
same,IC50,CP66-MEL,> 5 µM
same,IC50,SCC-15,> 5 µM
same,IC50,MMAC-SF,> 5 µM
same,IC50,CTV-1,0.479 µM
same,IC50,DJM-1,4.8 µM
same,IC50,HT-144,> 5 µM
same,IC50,NCI-H747,> 5 µM
same,IC50,A388,> 5 µM
same,IC50,MOLT-4,3.39 µM
same,IC50,COLO-829,3.67 µM
same,IC50,HCE-T,> 5 µM
same,IC50,LS-513,> 5 µM
same,IC50,OCI-AML2,> 5 µM
same,IC50,D283 Med,2.24 µM
same,IC50,NCI-H23,> 5 µM
same,IC50,TE-11,> 5 µM
same,IC50,EW-1,2.75 µM
same,IC50,NTERA-2-cl-D1,> 5 µM
same,IC50,GCIY,4.71 µM
same,IC50,KP-N-YS,0.682 µM
same,IC50,SK-MEL-1,> 5 µM
same,IC50,MHH-NB-11,> 5 µM
same,IC50,GB-1,> 5 µM
same,IC50,NCI-H1304,> 5 µM
same,IC50,OS-RC-2,> 5 µM
same,IC50,VA-ES-BJ,> 5 µM
same,IC50,P30-OHK,> 5 µM
same,IC50,KARPAS-299,> 5 µM
same,IC50,no-10,> 5 µM
same,IC50,KGN,> 5 µM
same,IC50,EW-18,0.622 µM
same,IC50,KALS-1,> 5 µM
same,IC50,JVM-3,3.07 µM
COc1cc(N2CCN(C)CC2)ccc1Nc1ncc2c(n1)N(C)c1ccccc1C(=O)N2C,IC50,MSTO-211H,> 8 µM
same,IC50,GR-ST,7.68 µM
same,IC50,NB69,7.85 µM
same,IC50,GI-1,> 8 µM
same,IC50,A4-Fuk,3.86 µM
same,IC50,COLO-320-HSR,> 8 µM
same,IC50,Ramos-2G6-4C10,5.67 µM
same,IC50,LS-1034,> 8 µM
same,IC50,EKVX,> 8 µM
same,IC50,NB5,> 8 µM
same,IC50,LB2241-RCC,> 8 µM
same,IC50,Mo,> 8 µM
same,IC50,JVM-2,> 8 µM
same,IC50,KNS-42,> 8 µM
same,IC50,MHH-PREB-1,3.84 µM
same,IC50,CP66-MEL,> 8 µM
same,IC50,SCC-15,> 8 µM
same,IC50,MMAC-SF,> 8 µM
same,IC50,CTV-1,> 8 µM
same,IC50,DJM-1,> 8 µM
same,IC50,HT-144,> 8 µM
same,IC50,NCI-H747,> 8 µM
same,IC50,A388,6.57 µM
same,IC50,MOLT-4,> 8 µM
same,IC50,COLO-829,> 8 µM
same,IC50,HCE-T,> 8 µM
same,IC50,LS-513,5.86 µM
same,IC50,OCI-AML2,3.6 µM
same,IC50,D283 Med,> 8 µM
same,IC50,NCI-H23,> 8 µM
same,IC50,EW-1,3.84 µM
same,IC50,NTERA-2-cl-D1,4.56 µM
same,IC50,GCIY,> 8 µM
same,IC50,KP-N-YS,> 8 µM
same,IC50,SK-MEL-1,> 8 µM
same,IC50,MHH-NB-11,> 8 µM
same,IC50,GB-1,> 8 µM
same,IC50,NCI-H1304,> 8 µM
same,IC50,OS-RC-2,> 8 µM
same,IC50,VA-ES-BJ,> 8 µM
same,IC50,P30-OHK,> 8 µM
same,IC50,KARPAS-299,> 8 µM
same,IC50,no-10,> 8 µM
same,IC50,KGN,2.79 µM
same,IC50,EW-18,> 8 µM
same,IC50,KALS-1,7.78 µM
same,IC50,JVM-3,> 8 µM
same,IC50,NCI-H510A,> 8 µM
COc1cc2ncn(-c3cc(OCc4ccccc4S(C)(=O)=O)c(C#N)s3)c2cc1OC [GSK-319347A],IC50,MSTO-211H,> 5 µM
same,IC50,GR-ST,> 5 µM
same,IC50,NB69,> 5 µM
same,IC50,GI-1,> 5 µM
same,IC50,A4-Fuk,> 5 µM
same,IC50,COLO-320-HSR,> 5 µM
same,IC50,Ramos-2G6-4C10,> 5 µM
same,IC50,LS-1034,> 5 µM
same,IC50,EKVX,> 5 µM
same,IC50,NB5,> 5 µM
same,IC50,LB2241-RCC,> 5 µM
same,IC50,Mo,> 5 µM
same,IC50,JVM-2,> 5 µM
same,IC50,KNS-42,> 5 µM
same,IC50,MHH-PREB-1,> 5 µM
same,IC50,CP66-MEL,> 5 µM
same,IC50,SCC-15,> 5 µM
same,IC50,MMAC-SF,> 5 µM
same,IC50,CTV-1,> 5 µM
same,IC50,DJM-1,> 5 µM
same,IC50,HT-144,> 5 µM
same,IC50,NCI-H747,> 5 µM
same,IC50,A388,> 5 µM
same,IC50,MOLT-4,> 5 µM
same,IC50,COLO-829,> 5 µM
same,IC50,HCE-T,> 5 µM
same,IC50,LS-513,> 5 µM
same,IC50,OCI-AML2,> 5 µM
same,IC50,D283 Med,> 5 µM
same,IC50,NCI-H23,> 5 µM
same,IC50,EW-1,> 5 µM
same,IC50,NTERA-2-cl-D1,> 5 µM
same,IC50,GCIY,> 5 µM
same,IC50,KP-N-YS,> 5 µM
same,IC50,SK-MEL-1,> 5 µM
same,IC50,MHH-NB-11,> 5 µM
same,IC50,GB-1,> 5 µM
same,IC50,NCI-H1304,> 5 µM
same,IC50,OS-RC-2,> 5 µM
same,IC50,VA-ES-BJ,> 5 µM
same,IC50,P30-OHK,> 5 µM
same,IC50,KARPAS-299,> 5 µM
same,IC50,no-10,> 5 µM
same,IC50,KGN,> 5 µM
same,IC50,EW-18,> 5 µM
same,IC50,KALS-1,> 5 µM
same,IC50,JVM-3,> 5 µM
same,IC50,NCI-H510A,> 5 µM
CN(C)C(=N)NC(=N)N [METFORMIN],IC50,MSTO-211H,> 20000 µM
same,IC50,GR-ST,> 20000 µM
same,IC50,NB69,> 20000 µM
same,IC50,GI-1,> 20000 µM
same,IC50,A4-Fuk,> 20000 µM
same,IC50,COLO-320-HSR,> 20000 µM
same,IC50,Ramos-2G6-4C10,> 20000 µM
same,IC50,LS-1034,> 20000 µM
same,IC50,EKVX,> 20000 µM
same,IC50,NB5,> 20000 µM
same,IC50,LB2241-RCC,> 20000 µM
same,IC50,Mo,> 20000 µM
same,IC50,JVM-2,> 20000 µM
same,IC50,MHH-PREB-1,11600 µM
same,IC50,SCC-15,> 20000 µM
same,IC50,CTV-1,1970 µM
same,IC50,DJM-1,10200 µM
same,IC50,HT-144,> 20000 µM
same,IC50,NCI-H747,> 20000 µM
same,IC50,A388,> 20000 µM
same,IC50,MOLT-4,> 20000 µM
same,IC50,COLO-829,> 20000 µM
same,IC50,LS-513,> 20000 µM
same,IC50,OCI-AML2,> 20000 µM
same,IC50,D283 Med,> 20000 µM
same,IC50,NCI-H23,17100 µM
same,IC50,TE-11,> 20000 µM
same,IC50,NTERA-2-cl-D1,19500 µM
same,IC50,GCIY,> 20000 µM
same,IC50,SK-MEL-1,11800 µM
same,IC50,GB-1,> 20000 µM
same,IC50,NCI-H1304,15600 µM
same,IC50,OS-RC-2,13000 µM
same,IC50,VA-ES-BJ,13300 µM
same,IC50,P30-OHK,2760 µM
same,IC50,KARPAS-299,> 20000 µM
same,IC50,KGN,> 20000 µM
same,IC50,EW-18,5850 µM
same,IC50,JVM-3,> 20000 µM
same,IC50,NCI-H510A,1310 µM
